Measured values from the NIST ThermoML archive (doi:10.1021/acs.jced.9b00560).
± gives the expanded uncertainty stated by the source.

How the values were obtained:
[1] = Molar enthalpy of transition or fusion; conditions: Crystal; DSC
[2] = Crystal; DSC

Molar enthalpy of transition or fusion [1]: 4.57 ± 0.215 kcal/mol
Triple point temperature [2]: 357.24 ± 1.2 K
SMILES: O=C1C=CC(=O)N1c1ccccc1Br [1-(2-bromophenyl)-pyrrole-2,5-dione]
